Measured values published in patent US20060069132A1, “Azolecarboxamide herbicides” (priority 2004, published 2006).

What was measured:
[1] = system: barnyardgrass; assay: Test B pre-/postemergence herbicide test; format: in vivo, Echinochloa crus-galli; settings: for Plant response rating, Barnyardgrass: preemergence; for Barnyardgrass plant response rating: postemergence, visual rating, scale 0 (no effect) to 100 (complete control)
Outline: (§1)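 Evaluation is visual, comparing treated with control plants on a scale where 0 means no effect and 100 means full control. Treatments were preemergence, or postemergence on seedlings 2–18 cm tall, and held 13–15 days in the greenhouse.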

[2] = system: Surinam grass; assay: Test B pre-/postemergence herbicide test; format: in vivo, Urochloa decumbens; settings: for Plant response rating, Surinam Grass: preemergence; for Surinam Grass plant response rating: postemergence, visual rating, scale 0 (no effect) to 100 (complete control)
Outline: (§2)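 Test chemicals in a non-phytotoxic solvent mixture with surfactant were applied preemergence to seeded species and postemergence to plants 2-18 cm tall (1- to 4-leaf stage); rice and barnyardgrass were also tested in a flooded paddy at the 2-leaf stage. Visual rating versus controls after 13-15 days in greenhouse, scale 0 (no effect) to 100 (complete control).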

[3] = system: cocklebur; assay: Test B pre-/postemergence herbicide test; format: in vivo, Xanthium strumarium; settings: for Plant response rating, Cocklebur: preemergence; for Cocklebur plant response rating: postemergence, visual rating, scale 0 (no effect) to 100 (complete control)
Outline: as §1

[4] = system: corn; assay: Test B pre-/postemergence herbicide test; format: in vivo, Zea mays; settings: for Plant response rating, Corn: preemergence; for Corn plant response rating: postemergence, visual rating, scale 0 (no effect) to 100 (complete control)
Outline: as §2

[5] = system: large crabgrass; assay: Test B pre-/postemergence herbicide test; format: in vivo, Digitaria sanguinalis; settings: for Plant response rating, Crabgrass, Large: preemergence; for Crabgrass, Large plant response rating: postemergence, visual rating, scale 0 (no effect) to 100 (complete control)
Outline: as §2

[6] = system: giant foxtail; assay: Test B pre-/postemergence herbicide test; format: in vivo, Setaria faberi; settings: for Plant response rating, Foxtail, Giant: preemergence; for Foxtail, Giant plant response rating: postemergence, visual rating, scale 0 (no effect) to 100 (complete control)
Outline: as §2

[7] = system: lambsquarters; assay: Test B pre-/postemergence herbicide test; format: in vivo, Chenopodium album; settings: for Plant response rating, Lambsquarters: preemergence; for Lambsquarters plant response rating: postemergence, visual rating, scale 0 (no effect) to 100 (complete control)
Outline: as §2

[8] = system: morningglory; assay: Test B pre-/postemergence herbicide test; format: in vivo, Ipomoea coccinea; settings: for Plant response rating, Morningglory: preemergence; for Morningglory plant response rating: postemergence, visual rating, scale 0 (no effect) to 100 (complete control)
Outline: as §1

[9] = system: pigweed; assay: Test B pre-/postemergence herbicide test; format: in vivo, Amaranthus retroflexus; settings: for Plant response rating, Pigweed: preemergence; for Pigweed plant response rating: postemergence, visual rating, scale 0 (no effect) to 100 (complete control)
Outline: as §2

[10] = system: blackgrass; assay: Test B postemergence herbicide test; format: in vivo, Alopecurus myosuroides; settings: postemergence, visual rating, scale 0 (no effect) to 100 (complete control)
Outline: (§3)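 Each value is a visual 0–100 response rating taken against controls 13 to 15 days after treatment in the greenhouse. Plants received formulated chemical postemergence at the 1- to 4-leaf stage or, in flooded paddy, at the 2-leaf stage.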

[11] = system: wheat; assay: Test B postemergence herbicide test; format: in vivo, Triticum aestivum; set-up: key to Wheat plant response rating: 0 = no effect, 100 = complete control; settings: postemergence, 500 g ai/ha; visual rating, scale 0 (no effect) to 100 (complete control)
Outline: (§4)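 Greenhouse test; postemergence application to plants at 1–4 leaves (2–18 cm); paddy species at 2 leaves; evaluated visually vs controls at 13–15 days; scale 0–100 (100 = complete control).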

[12] = system: wild oat; assay: Test B postemergence herbicide test; format: in vivo, Avena fatua; settings: postemergence, visual rating, scale 0 (no effect) to 100 (complete control)
Outline: as §4

[13] = system: rice; assay: Test B flooded paddy test; format: in vivo, Oryza sativa; settings: 1000 g ai/ha, visual rating, scale 0 to 100 (0 no effect, 100 complete control), 13 to 15 days
Outline: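 Paddy species grown to the 2-leaf stage under flooding; blackgrass sprayed postemergence at 2–18 cm (1- to 4-leaf stage). Plants kept in a greenhouse for 13 to 15 days, then visually rated against controls on 0 (no effect) to 100 (complete control).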

[14] = system: small flower umbrella sedge; assay: Test B flooded paddy test; format: in vivo, Cyperus difformis; settings: 1000 g ai/ha, visual rating, scale 0 to 100 (0 no effect, 100 complete control), 13 to 15 days
Outline: as §3

[15] = system: ducksalad; assay: Test B flooded paddy test; format: in vivo, Heteranthera limosa; settings: 1000 g ai/ha, visual rating, scale 0 to 100 (0 no effect, 100 complete control), 13 to 15 days
Outline: as §3

[16] = system: barnyardgrass; assay: Test B flooded paddy test; format: in vivo, Echinochloa crus-galli; settings: 1000 g ai/ha, visual rating, scale 0 to 100 (0 no effect, 100 complete control), 13 to 15 days
Outline: as §3

[17] = 500 g ai/ha, visual rating 0-100, 0 no effect, 100 complete control
[18] = 125 g ai/ha, 0 to 100 scale, 0 is no effect, 100 is complete control

CCn1nc(C(C)(C)C)cc1C(=O)Nc1cccc(C(N)=O)n1 [Compound 162, 6-[[[3-(1,1-dimethylethyl)-1-ethyl-1H-pyrazol-5-yl]carbonyl]amino]-2-pyridinecarboxamide]
0: Barnyardgrass plant response rating ([1]; 125 g ai/ha) | Surinam Grass plant response rating ([2]; 125 g ai/ha) | Corn plant response rating ([4]; 125 g ai/ha) | Corn plant response rating ([4]; 500 g ai/ha) | Morningglory plant response rating ([8]; 125 g ai/ha)
30: Barnyardgrass plant response rating ([1]; 500 g ai/ha) | Plant response rating, Cocklebur [3, 18] | Plant response rating, Corn [4, 18] | Foxtail, Giant plant response rating ([6]; 500 g ai/ha)
50: Blackgrass plant response rating ([10]; 500 g ai/ha)
80: Plant response rating, Corn [4, 17] | Lambsquarters plant response rating ([7]; 125 g ai/ha) | Plant response rating, Morningglory [8, 17] | Pigweed plant response rating ([9]; 500 g ai/ha) | Rice plant response rating [13] | Sedge, Umbrella plant response rating [14] | Ducksalad plant response rating [15] | Barnyardgrass plant response rating [16]
10: Cocklebur plant response rating ([3]; 125 g ai/ha) | Wheat plant response rating [11]
100: Plant response rating, Barnyardgrass [1, 17] | Plant response rating, Barnyardgrass [1, 18] | Plant response rating, Surinam Grass [2, 17] | Plant response rating, Crabgrass, Large [5, 17] | Plant response rating, Crabgrass, Large [5, 18] | Plant response rating, Foxtail, Giant [6, 17] | Plant response rating, Foxtail, Giant [6, 18] | Plant response rating, Lambsquarters [7, 17] | Plant response rating, Lambsquarters [7, 18] | Plant response rating, Pigweed [9, 17] | Plant response rating, Pigweed [9, 18]
40: Surinam Grass plant response rating ([2]; 500 g ai/ha) | Crabgrass, Large plant response rating ([5]; 500 g ai/ha) | Pigweed plant response rating ([9]; 125 g ai/ha) | Oat, Wild plant response rating ([12]; 500 g ai/ha)
60: Cocklebur plant response rating ([3]; 500 g ai/ha) | Morningglory plant response rating ([8]; 500 g ai/ha)
20: Crabgrass, Large plant response rating ([5]; 125 g ai/ha) | Foxtail, Giant plant response rating ([6]; 125 g ai/ha) | Plant response rating, Morningglory [8, 18] | Blackgrass plant response rating ([10]; 125 g ai/ha) | Oat, Wild plant response rating ([12]; 125 g ai/ha)
90: Plant response rating, Surinam Grass [2, 18] | Plant response rating, Cocklebur [3, 17] | Lambsquarters plant response rating ([7]; 500 g ai/ha)
